In patent US10722599B2, “Lipid assemblies and uses thereof and some pH and electrostatic modulating lipids to be used in said assemblies” (Yissum Research Development Company of the Hebrew …, priority 2015, dated 2020):
Where two headings read alike, the source gives them in different places.

Assays:
[1] = test system: orthotopic intraperitoneal tumors of SKOV-3 human ovarian adenocarcinoma cells; details: mouse, in vivo, ip, 7 mg/kg
Protocol: (§1) In vivo bio-distribution and activity of miR-34a or siRNA formulated with DOPC/Ampholip was evaluated in female nude mice bearing orthotopic intraperitoneal tumors of SKOV-3 human ovarian adenocarcinoma cells.
(§2) This experiment intended to assess the bio-distribution and activity of amphoteric liposomes/miR34a and amphoteric liposomes/miR-34a-SL. To this end, experimental model female nude mice bearing the orthotopic tumors received three series of repeated intraperitoneal (IP) injections (at days 20, 22 and 25) with amphoteric liposomes/miRNA in concentration of 7 mg/kg of miRNA. Twenty-four hours after the last dose the tumors were removed, and RNA extracted.

[2] = test system: orthotopic intraperitoneal tumors of SKOV-3 human ovarian adenocarcinoma cells; test: In vivo SKOV model: miR-34a accumulation in tumor (Ampholip 1); details: IP, 7 mg/kg miRNA, days 20, 22, 25, tumors 24 h after last dose, 'miR-34a-SL' = DOPC/Ampholip1/miR-34a-SL (2M), folate formulation = DOPC/Ampholip1/Folate/miR-34a (1M)
Protocol: as §1, §2

[3] = in vivo, iv, 1 mg/kg
Protocol: (§3) Three animals were injected IV in each group with a dose of 1 mg/kg. Plasma was isolated at serial time points: pre-dosing (time 0), 10 minutes, 30 minutes, 1 hour, 2 hours 4 hours, 6 hours and 24 hours. RNA was extracted from the plasma according to Rosetta Genomics' protocol of miRNA isolation from fluids. qPCR was done for miR-34a, normalized to selected miRNAs: hsa-miR-16-5p, hsa-miR-103a-3p and hsa-miR-23a-3p.

[4] = PK study with formulated miRNA; details: 71%-14%, from plasma levels at 30 minutes
Protocol: as §3

BALB/c mice = test: In vivo toxicity, single IV escalating dose; details: as formulated siRNA, Ampholip1 up to 10 mg/kg, Ampholip2 up to 5 mg/kg, 24 hours and 7 days
Protocol: Each group comprised six (6) males and six (6) females BALB/cOlaHsd mice, where half of each group (3 males and 3 females) were assigned to 24 hours or 7 days termination time points, respectively. Animals were subjected to clinical hematology and biochemistry assessment at 24 hours and 7 days post dosing, followed by gross macroscopic examination. The following parameters were evaluated for toxicity: mortality, clinical signs, body weight, weight gain, hematology and biochemistry tests.

Compound: miR-34a-SL: hsa-miR-34a conjugated to sphingolipid, SEQ ID NO 1 and 3 (chain 1 UGGCAGUGUCUUAGCUGGUUGU; chain 2 CAAUCAGCAAGUAUACUGCCCU; sphingolipid conjugate, position not given here; listed as Homo sapiens)
- fold enrichment of miR-34a in tumor relative to the negative controls [1]: two
- fold enrichment of miR-34a in tumor relative to the negative controls [2]: 604 fold
- share in circulation at 30 minutes relative to 10 minutes [3]: 14%

Compound: miR-34a: hsa-miR-34a naked (non-conjugated) duplex, SEQ ID NO 1 and 2 (chain 1 UGGCAGUGUCUUAGCUGGUUGU; chain 2 ACAAUCAGCAAGUAUACUGCCC; further chemistry not given here; listed as Homo sapiens)
- estimate of encapsulation [4]: 57%
- plasma stability / bioavailability of miR-34a, in words [3]: rapidly degraded

Compound: CCCCCCCCCCCCC/C=C/[C@@H](O)[C@H](COC(=O)NCCCNCCCCNCCCNC(=O)CCC(=O)O)NC(=O)CCCCCCCCCCCCCCC [Ampholip 2, Carboxy-N-palmitoyl-D-erythro-sphingosyl-1-carbamoyl spermine]
- gross pathological findings (BALB/c mice): no gross pathological findings
- mortality, clinical signs, body weight, weight gain, hematology and biochemistry vs saline-treated groups (BALB/c mice): No significant statistical difference
